Data on 4 compounds can be found in patent US6372790B1, “Pharmaceutical composition comprising a combination of metformin and fibrate, and its use for the preparation of medicines intended to reduce hyperglycaemia” (Merck Patent Gesellschaft mit beschrankter Haftung, priority 1998, dated 2002).

The test system of the experiment is NIDD STZ rats. The experiment is described as follows: Streptozotocin-induced non-insulin-dependent diabetes (NIDD) rat model: glycaemia, cholesterol, triglycerides. Type of experiment: in vivo, male Wistar rats. To be noted: for Cholesterol / Triglycerides / Glycaemia: STZ (45 mg/kg) diabetic male Wistar rats, oral treatment at the doses in Table 1, measured 23 days after STZ, mean ± SEM, 10 rats per group. The method, then:
Non-insulin-dependent diabetes (NIDD) is induced by injecting streptozotocin into male wistar rats. […] The procedure followed is as follows. […] Two weeks after this treatment, blood is taken and the glycaemia is measured. […] The animals then receive, orally, either metformin alone, or a fibrate alone, or a combination of the two in the doses indicated in Table 1 below. 23 days after the injection of streptozotocin, the animals are sacrificed and the following parameters are determined: glycaemia, cholesterol and triglycerides. […] The Student t test is carried out to evaluate the significance of the results obtained.

For `CC(C)OC(=O)C(C)(C)Oc1ccc(C(=O)c2ccc(Cl)cc2)cc1` [Fenofibrate, fenofibrate], the Cholesterol worked out at 0.45 ± 0.02 g/L and the Triglycerides amounted to 0.61 ± 0.10 g/L.
Take `CCOC(=O)C(C)(C)Oc1ccc(Cl)cc1` [Clofibrate, clofibrate]: the Cholesterol stood at 0.63 ± 0.03 g/L, the Glycaemia came to 2.58 ± 0.11 g/L and the Triglycerides stood at 0.93 ± 0.11 g/L.
With `CC(C)(Oc1ccc(CCNC(=O)c2ccc(Cl)cc2)cc1)C(=O)O` [Bezafibrate, bezafibrate], the Cholesterol worked out at 0.52 ± 0.05 g/L, the Glycaemia worked out at 2.20 ± 0.21 g/L and the Triglycerides worked out at 0.81 ± 0.11 g/L. In addition, for the setting “listed as bezafibrate”, the Glycaemia stood at 2.20 g/L.
For `CN(C)C(=N)N=C(N)N` [Metformin, metformin], the Cholesterol turned out to be 0.61 ± 0.03 g/L, the Glycaemia came out at 1.74 ± 0.14 g/L and the Triglycerides came to 0.85 ± 0.10 g/L. Besides, for the setting “listed as metformin”, the Glycaemia was 1.74 g/L. Further, for the setting “metformin alone, in animals, such as in man”, the “Effects on the levels of cholesterol and of triglycerides when administered alone” value is “effects on decreasing the levels of cholesterol and of triglycerides”.
